Measured values published in ChEMBL document CHEMBL1201862, “PubChem BioAssay data set” (2004).
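Values below derive from 48-hour exposures of cells grown in 96-well plates, with endpoints linearly interpolated between the two concentrations bracketing the appropriate inhibition level. GI50 marks 50% less growth.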 Active and inactive are the calls of the source. No stated cut-off is given here; in the data, active = GI50 up to about 1.1 µM and inactive = higher.

How the values were obtained:
Assay in all cases: inhibition of tumour cell growth, NCI panel, 48 h
EKVX = tested on: EKVX
NCI-H522 = tested on: NCI-H522
T47D = tested on: T47D
UACC-62 = tested on: UACC-62
HOP-92 = tested on: HOP-92
SK-OV-3 = tested on: SK-OV-3
SNB-75 = tested on: SNB-75
SF-268 = tested on: SF-268
ACHN = tested on: ACHN
HT-29 = tested on: HT-29
K562 = tested on: K562
A549 = tested on: A549
BT-549 = tested on: BT-549
COLO 205 = tested on: COLO 205
MDA-MB-231 = tested on: MDA-MB-231
KM12 = tested on: KM12
SK-MEL-28 = tested on: SK-MEL-28
MDA-N = tested on: MDA-N
SR = tested on: SR
DMS-114 = tested on: DMS-114

Structure (SMILES): O=C1C[C@@H](Sc2ccccc2)C2(OCCO2)C2ON3CCCC[C@H]3[C@H]12 (stereo not given in full)
- GI50 (EKVX): 10.8 µM (inactive)
- GI50 (NCI-H522): 2.15 µM (inactive)
- GI50 (T47D): 16.2 µM (inactive)
- GI50 (UACC-62): 6.03 µM (inactive)
- GI50 (HOP-92): 7 µM (inactive)
- GI50 (SK-OV-3): 41.5 µM (inactive)
- GI50 (SNB-75): 12.4 µM (inactive)
- GI50 (SF-268): 7.55 µM (inactive)
- GI50 (ACHN): 2.49 µM (inactive)
- GI50 (HT-29): 4.75 µM (inactive)
- GI50 (K562): 2.11 µM (inactive)
- GI50 (A549): 7.36 µM (inactive)
- GI50 (BT-549): 5.81 µM (inactive)
- GI50 (COLO 205): 7.8 µM (inactive)
- GI50 (MDA-MB-231): 12.6 µM (inactive)
- GI50 (KM12): 4.48 µM (inactive)
- GI50 (SK-MEL-28): 19.4 µM (inactive)
- GI50 (MDA-N): 13.2 µM (inactive)
- GI50 (SR): 0.927 µM (active)

Structure (SMILES): NC(CCC(=O)O)(CCC(=O)O)CCC(=O)O
- GI50 (EKVX): > 100 µM (inactive)
- GI50 (NCI-H522): 11.5 µM (inactive)
- GI50 (T47D): > 100 µM (inactive)
- GI50 (UACC-62): > 100 µM (inactive)
- GI50 (HOP-92): > 100 µM (inactive)
- GI50 (SK-OV-3): > 100 µM (inactive)
- GI50 (SNB-75): > 100 µM (inactive)
- GI50 (SF-268): > 100 µM (inactive)
- GI50 (ACHN): > 100 µM (inactive)
- GI50 (HT-29): > 100 µM (inactive)
- GI50 (K562): > 100 µM (inactive)
- GI50 (A549): > 100 µM (inactive)
- GI50 (BT-549): > 100 µM (inactive)
- GI50 (COLO 205): > 100 µM (inactive)
- GI50 (MDA-MB-231): > 100 µM (inactive)
- GI50 (KM12): > 100 µM (inactive)
- GI50 (MDA-N): > 100 µM (inactive)
- GI50 (SR): > 100 µM (inactive)

Structure (SMILES): N=c1oc2c(Cl)cc(Cl)cc2cc1C(=O)Nc1cccc2ccccc12
- GI50 (EKVX): 8.93 µM (inactive)
- GI50 (NCI-H522): 8.17 µM (inactive)
- GI50 (T47D): 5.2 µM (inactive)
- GI50 (UACC-62): 40.6 µM (inactive)
- GI50 (HOP-92): 15.3 µM (inactive)
- GI50 (SK-OV-3): 15.9 µM (inactive)
- GI50 (SNB-75): 3.2 µM (inactive)
- GI50 (SF-268): 18 µM (inactive)
- GI50 (ACHN): 3.52 µM (inactive)
- GI50 (HT-29): 39.4 µM (inactive)
- GI50 (K562): 13.3 µM (inactive)
- GI50 (A549): 6.55 µM (inactive)
- GI50 (BT-549): 30.1 µM (inactive)
- GI50 (COLO 205): 7.57 µM (inactive)
- GI50 (MDA-MB-231): 3.78 µM (inactive)
- GI50 (KM12): 53.8 µM (inactive)
- GI50 (SK-MEL-28): > 80.9 µM (inactive)
- GI50 (MDA-N): 33 µM (inactive)
- GI50 (SR): 12.4 µM (inactive)

Structure (SMILES): CC(=O)Nc1ccc(S(=O)(=O)[N-]C2C(=O)c3ccccc3C(=O)C2[n+]2ccccc2)cc1 (stereo not given)
- GI50 (EKVX): 31 µM (inactive)
- GI50 (NCI-H522): 19.2 µM (inactive)
- GI50 (T47D): 47.6 µM (inactive)
- GI50 (UACC-62): 14.8 µM (inactive)
- GI50 (HOP-92): 17.4 µM (inactive)
- GI50 (SK-OV-3): 94.8 µM (inactive)
- GI50 (SNB-75): 16.1 µM (inactive)
- GI50 (SF-268): 18.5 µM (inactive)
- GI50 (ACHN): 15.8 µM (inactive)
- GI50 (HT-29): 45.1 µM (inactive)
- GI50 (K562): 23.3 µM (inactive)
- GI50 (A549): 19.5 µM (inactive)
- GI50 (BT-549): 3.02 µM (inactive)
- GI50 (COLO 205): > 100 µM (inactive)
- GI50 (MDA-MB-231): 26.6 µM (inactive)
- GI50 (KM12): 14.6 µM (inactive)
- GI50 (SK-MEL-28): 16.5 µM (inactive)
- GI50 (MDA-N): 17.2 µM (inactive)
- GI50 (SR): 13.5 µM (inactive)

Structure (SMILES): COC(=O)NC(Cc1ccccc1)NC(C)=O (stereo not given)
- GI50 (EKVX): > 100 µM (inactive)
- GI50 (NCI-H522): > 100 µM (inactive)
- GI50 (T47D): > 100 µM (inactive)
- GI50 (UACC-62): > 100 µM (inactive)
- GI50 (HOP-92): > 100 µM (inactive)
- GI50 (SK-OV-3): > 100 µM (inactive)
- GI50 (SNB-75): > 100 µM (inactive)
- GI50 (SF-268): > 100 µM (inactive)
- GI50 (ACHN): > 100 µM (inactive)
- GI50 (HT-29): > 100 µM (inactive)
- GI50 (K562): > 100 µM (inactive)
- GI50 (A549): > 100 µM (inactive)
- GI50 (BT-549): > 100 µM (inactive)
- GI50 (COLO 205): > 100 µM (inactive)
- GI50 (MDA-MB-231): 71 µM (inactive)
- GI50 (KM12): > 100 µM (inactive)
- GI50 (SK-MEL-28): > 100 µM (inactive)
- GI50 (MDA-N): > 100 µM (inactive)
- GI50 (SR): > 100 µM (inactive)

Structure (SMILES): Nc1ccc(Cc2ccc(N)c(C(=O)O)c2)cc1C(=O)O
- GI50 (EKVX): > 100 µM (inactive)
- GI50 (NCI-H522): > 100 µM (inactive)
- GI50 (T47D): > 100 µM (inactive)
- GI50 (UACC-62): > 100 µM (inactive)
- GI50 (HOP-92): > 100 µM (inactive)
- GI50 (SK-OV-3): > 100 µM (inactive)
- GI50 (SNB-75): > 100 µM (inactive)
- GI50 (SF-268): > 100 µM (inactive)
- GI50 (ACHN): > 100 µM (inactive)
- GI50 (HT-29): > 100 µM (inactive)
- GI50 (K562): > 100 µM (inactive)
- GI50 (A549): > 100 µM (inactive)
- GI50 (BT-549): > 100 µM (inactive)
- GI50 (COLO 205): > 100 µM (inactive)
- GI50 (MDA-MB-231): > 100 µM (inactive)
- GI50 (KM12): > 100 µM (inactive)
- GI50 (SK-MEL-28): > 100 µM (inactive)
- GI50 (MDA-N): > 100 µM (inactive)
- GI50 (SR): > 100 µM (inactive)

Structure (SMILES): CCOc1ccc(/N=C\c2cc(OC)c(OC)c(OC)c2)cc1
- GI50 (EKVX): > 100 µM (inactive)
- GI50 (NCI-H522): > 100 µM (inactive)
- GI50 (UACC-62): > 100 µM (inactive)
- GI50 (HOP-92): > 100 µM (inactive)
- GI50 (SK-OV-3): > 100 µM (inactive)
- GI50 (SNB-75): 32.4 µM (inactive)
- GI50 (SF-268): > 100 µM (inactive)
- GI50 (ACHN): > 100 µM (inactive)
- GI50 (HT-29): > 100 µM (inactive)
- GI50 (K562): 52.5 µM (inactive)
- GI50 (A549): > 100 µM (inactive)
- GI50 (DMS-114): > 100 µM (inactive)
- GI50 (KM12): > 100 µM (inactive)
- GI50 (SK-MEL-28): > 100 µM (inactive)

Structure (SMILES): COc1ccc(C2Cc3cc(OC)c(OC)c(OC)c3C2)cc1 (stereo not given)
- GI50 (EKVX): 29 µM (inactive)
- GI50 (UACC-62): 66.1 µM (inactive)
- GI50 (SK-OV-3): > 100 µM (inactive)
- GI50 (SNB-75): 24.2 µM (inactive)
- GI50 (SF-268): 47.1 µM (inactive)
- GI50 (ACHN): 39.1 µM (inactive)
- GI50 (HT-29): 28.1 µM (inactive)
- GI50 (K562): 20.2 µM (inactive)
- GI50 (A549): 22 µM (inactive)
- GI50 (DMS-114): 27.8 µM (inactive)
- GI50 (COLO 205): 66.7 µM (inactive)
- GI50 (KM12): 23 µM (inactive)
- GI50 (SK-MEL-28): 31.2 µM (inactive)
